Experimental findings from patent US9156874B2, “Double-liver-targeting phosphoramidate and phosphonoamidate prodrugs” (Nanjing Molecular Research, Inc., priority 2011, dated 2015) are described below.

Data set [1] can be described thus: Pharmacokinetic (PK) study in rats, plasma and liver levels by LC/MS-MS. The class given is in vivo, SD rats. The settings on record: for oral bioavailability: rats. The method, then:
Pharmacokinetic (PK) study of ester prodrug (FDURPAE), parent drug (FDUR) and prodrug in sodium salt form (FDURPAN) in rats were completed according to following procedure.
SD rats (250-300 g, male, N=24) were used for FDURPAE, FDUR and FDURPAN, purchased from SLAC Laboratory Animal Co. LTD Qualification No.: SCXK SH 2007-0005, 13264. FDURPAE (0.096 mmol, 52.17 mg/kg) and FDUR (0.096 mmol, 23.7 mg/kg) were dosed orally by gavage with a single dose of each compound to rats in a volume of 5 mL/kg in 0.5% carboxymethylcellulose sodium. FDURPAN (0.096 mmol, 50.24 mg) was dosed both orally or iv by gavage with a single dose to rats in a volume of 5 mL/kg in water. The animal was restrained manually at designated time points. Approximately 500 μL of blood/time point was collected into K2EDTA tube via cardiac puncture for terminal bleeding under anesthesia with Isoflurane. Blood samples were put on ice after collection and then centrifuged to obtain plasma sample (2000 g, 5 min, 4° C.) within 15 minutes of sampling. […] All the plasma samples were immediately quenched for protein precipitation. Liver samples were removed at designated time points by first sacrificing the animal by CO2 inhalation, then perfusing the liver with ice cold saline and removing the left middle liver lobe, which was then snap frozen in dry ice. Liver samples were stored at approximately −80° C. until analysis. The liver homogenate was then processed for further analysis by LC/MS-MS. Plasma and liver samples were stored at approximately −80° C. until analysis.
Concentrations of parent drug and possible metabolites in both plasma and liver including FDURPAN (stable metabolite of FDURPAE), FDUR, 5FU and FDUR-MP were determined by LC/MS-MS, respectively.

For a further data set, the system named is HCV subgenomic replicon. Kind of data set: HCV replicon assay (Huh-7, luciferase reporter). The format is cell-based. The method, then:
Anti-Hepatitis C Activity. Anti-HCV activity and cytotoxicity of compounds disclosed herein were assayed following the method described in WO 2007/027248.
The anti-HCV activity and toxicity of the exemplary compounds can be tested in two biological assays—a cell-based HCV replicon assay and cytotoxicity assay (WO 2007/027248).
A human hepatoma cell line (Huh-7) containing replicating HCV subgenomic replicon with a luciferase reporter gene (luc-ubi-neo) was used to evaluate anti-HCV activity of the compounds. In this assay, level of luciferase signal correlates with the viral RNA replication directly. The HCV replicon-reporter cell line (NK/luc-ubi-neo) was cultured in DMEM medium supplemented with 10% fetal bovine serum and 0.5 mg/ml Geneticin (G418). Cells were maintained in a subconfluent state to ensure high levels of HCV replicon RNA synthesis.
To evaluate the antiviral activity of compounds, serial dilutions were prepared with concentrations ranging from 0.14 to 300 μM. Diluted compounds were transferred to a 96-well plate followed by the addition of replicon cells (6000 cells per well). Cells were incubated with the compounds for 48 h after which luciferase activity was measured. Reduction of luciferase signal reflected the decrease of HCV replicon RNA in the treated cells and used to determine the EC50 value (concentration which yielded a 50% reduction in luciferase activity).
In general terms: Replicon systems follow genome replication, usually without infectious particles.

As for `Cc1ccccc1CO[P@](=O)(N[C@H](C)C(=O)OC(C)C)OCC1OC(n2cc(F)c(=O)[nH]c2=O)CC1O` (single isomer, unassigned) [FDURPAE (F5)], in data set [1] (rat, oral administration), the “detection of active drug FDUR-MP in plasma” value was “could not be detected” and the “detection of metabolite 5FU in plasma” value is “could not be detected”. In addition, the oral bioavailability result in data set [1] was “significantly improved oral bioavailability”.

`CC1(F)C(O)C(COP(=O)(NCc2ccccc2)OCc2ccccc2)OC1n1ccc(=O)[nH]c1=O` (stereo not drawn) [F2]: the anti-HCV activity entry with HCV subgenomic replicon is given as “did not show any anti-HCV activity”. Same read-out and setting: next, `Cc1ccccc1COP(=O)(NCc1ccccc1)OCC1OC(n2ccc(=O)[nH]c2=O)C(C)(F)C1O` (stereo not drawn) [F3]: “potent anti-HCV activity”. With `Cc1ccccc1COP(=O)(NCc1ccccc1)OCC1OC(n2cc(F)c(=O)[nH]c2=O)CC1O` (stereo not drawn) [F4], in data set [1], the oral bioavailability result is recorded as “very low”.
